Data published in PubChem BioAssay (NCI).
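A five-concentration, 48-hour dose response in 96-well plates underlies each endpoint, interpolated linearly between surrounding concentrations. TGI: total growth inhibition.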

What was measured:
Assay in all cases: NCI tumour cell line growth inhibition, 48 h
[1] = system: IGROV1 ovarian
[2] = system: SF-539 CNS
[3] = system: UACC-257 melanoma
[4] = system: NCI-H522 lung
[5] = system: HCT-116 colon
[6] = system: MALME-3M melanoma
[7] = system: DLD-1 colon
[8] = system: HCC-2998 colon
[9] = system: XF 498 CNS
[10] = system: SF-268 CNS
[11] = system: SF-295 CNS
[12] = system: A549 NSCLC
[13] = system: A498 renal
[14] = system: 786-0 renal
[15] = system: UO-31 renal
[16] = system: M19-MEL melanoma
[17] = system: RXF-631 renal
[18] = system: SNB-75 CNS
[19] = system: KM12 colon
[20] = system: OVCAR-3 ovarian
[21] = system: HOP-92 NSCLC
[22] = system: SW-620 colon
[23] = system: SR leukemia
[24] = system: HL-60(TB) leukemia
[25] = system: SN12C renal
[26] = system: NCI-H226 lung
[27] = system: SK-MEL-2 melanoma
[28] = system: MOLT-4 leukemia
[29] = system: HT29 colon
[30] = system: OVCAR-4 ovarian
[31] = system: CCRF-CEM leukemia
[32] = system: M14 melanoma
[33] = system: UACC-62 melanoma
[34] = system: K-562 leukemia
[35] = system: HOP-62 NSCLC
[36] = system: SNB-19 CNS
[37] = system: OVCAR-8 ovarian
[38] = system: SK-OV-3 ovarian
[39] = system: LXFL 529 NSCLC
[40] = system: SK-MEL-28 melanoma
[41] = system: CAKI-1 renal
[42] = system: EKVX NSCLC
[43] = system: NCI-H23 lung
[44] = system: DMS 114 small cell lung
[45] = system: TK-10 renal
[46] = system: RPMI-8226 leukemia
[47] = system: COLO 205 colon
[48] = system: DMS 273 small cell lung
[49] = system: KM20L2 colon
[50] = system: U251 CNS
[51] = system: SK-MEL-5 melanoma
[52] = system: ACHN renal
[53] = system: LOX IMVI melanoma
[54] = system: HCT-15 colon
[55] = system: OVCAR-5 ovarian
[56] = system: NCI-H460 lung
[57] = system: SNB-78 CNS
[58] = system: RXF 393 renal

COc1ccc([C@@H]2C[C@@H]3C(=O)OC(=O)[C@@H]3c3c2c2ccccc2n3C)cc1
TGI [1]: > 100 µM | TGI [2]: > 100 µM | TGI [3]: > 100 µM | TGI [4]: > 100 µM | TGI [5]: > 100 µM | TGI [6]: > 100 µM | TGI [7]: > 100 µM | TGI [8]: > 100 µM | TGI [9]: > 100 µM | TGI [10]: > 100 µM | TGI [11]: > 100 µM | TGI [12]: > 100 µM | TGI [13]: > 100 µM | TGI [14]: > 100 µM | TGI [15]: > 100 µM | TGI [16]: > 100 µM | TGI [17]: > 100 µM | TGI [18]: > 100 µM | TGI [19]: > 100 µM | TGI [20]: > 100 µM | TGI [21]: > 100 µM | TGI [22]: > 100 µM | TGI [23]: > 100 µM | TGI [24]: > 100 µM | TGI [25]: > 100 µM | TGI [26]: > 100 µM | TGI [27]: > 100 µM | TGI [28]: > 100 µM | TGI [29]: > 100 µM | TGI [30]: > 100 µM | TGI [31]: > 100 µM | TGI [32]: > 100 µM | TGI [33]: > 100 µM | TGI [34]: > 100 µM | TGI [35]: > 100 µM | TGI [36]: > 100 µM | TGI [37]: > 100 µM | TGI [38]: > 100 µM | TGI [39]: > 100 µM | TGI [40]: > 100 µM | TGI [41]: > 100 µM | TGI [42]: > 100 µM | TGI [43]: > 100 µM | TGI [44]: > 100 µM | TGI [45]: > 100 µM | TGI [46]: > 100 µM | TGI [47]: > 100 µM | TGI [48]: > 100 µM

O=C1c2ccccc2C(=O)N1C/C=N/NS(=O)(=O)c1ccc(F)cc1
TGI [1]: > 100 µM | TGI [2]: > 100 µM | TGI [3]: > 100 µM | TGI [4]: > 100 µM | TGI [5]: > 100 µM | TGI [6]: > 100 µM | TGI [7]: > 100 µM | TGI [8]: > 100 µM | TGI [9]: > 100 µM | TGI [10]: > 100 µM | TGI [11]: > 100 µM | TGI [12]: > 100 µM | TGI [14]: > 100 µM | TGI [15]: > 100 µM | TGI [16]: > 100 µM | TGI [17]: > 100 µM | TGI [18]: > 100 µM | TGI [19]: > 100 µM | TGI [22]: > 100 µM | TGI [49]: > 100 µM | TGI [50]: > 100 µM | TGI [23]: > 100 µM | TGI [24]: > 100 µM | TGI [25]: > 100 µM | TGI [26]: > 100 µM | TGI [27]: > 100 µM | TGI [28]: > 100 µM | TGI [30]: > 100 µM | TGI [31]: > 100 µM | TGI [33]: > 100 µM | TGI [34]: > 100 µM | TGI [51]: > 100 µM | TGI [36]: > 100 µM | TGI [37]: > 100 µM | TGI [52]: > 100 µM | TGI [39]: > 100 µM | TGI [53]: > 100 µM | TGI [41]: > 100 µM | TGI [42]: > 100 µM | TGI [43]: > 100 µM | TGI [44]: > 100 µM | TGI [45]: > 100 µM | TGI [46]: > 100 µM | TGI [54]: > 100 µM | TGI [47]: > 100 µM | TGI [48]: > 100 µM

O=C(c1ccc(Cl)cc1Cl)N(/N=C/C=C/c1ccccc1)c1nnc(-c2ccccc2)c(-c2ccccc2)n1
TGI [1]: > 100 µM | TGI [2]: > 100 µM | TGI [3]: > 100 µM | TGI [4]: 82.5 µM | TGI [6]: > 100 µM | TGI [7]: > 100 µM | TGI [8]: > 100 µM | TGI [9]: > 100 µM | TGI [10]: > 100 µM | TGI [11]: > 100 µM | TGI [12]: > 100 µM | TGI [13]: > 100 µM | TGI [14]: > 100 µM | TGI [15]: > 100 µM | TGI [55]: > 100 µM | TGI [16]: > 100 µM | TGI [17]: > 100 µM | TGI [18]: > 100 µM | TGI [19]: > 100 µM | TGI [20]: > 100 µM | TGI [56]: > 100 µM | TGI [22]: > 100 µM | TGI [49]: > 100 µM | TGI [50]: > 100 µM | TGI [24]: > 100 µM | TGI [25]: > 100 µM | TGI [26]: > 100 µM | TGI [27]: > 100 µM | TGI [28]: > 100 µM | TGI [29]: > 100 µM | TGI [30]: > 100 µM | TGI [31]: > 100 µM | TGI [33]: > 100 µM | TGI [34]: > 100 µM | TGI [51]: > 100 µM | TGI [35]: > 100 µM | TGI [36]: > 100 µM | TGI [57]: > 100 µM | TGI [37]: > 100 µM | TGI [38]: > 100 µM | TGI [52]: > 100 µM | TGI [40]: > 100 µM | TGI [53]: > 100 µM | TGI [42]: > 100 µM | TGI [43]: > 100 µM | TGI [44]: > 100 µM | TGI [45]: > 100 µM | TGI [46]: > 100 µM | TGI [58]: > 100 µM | TGI [54]: > 100 µM | TGI [47]: > 100 µM | TGI [48]: > 100 µM

Cn1c2c([N+](=O)[O-])cccc2c(=O)c2c(O)cc3c(c21)C=CC(C)(C)O3
TGI [1]: > 100 µM | TGI [2]: 76.2 µM | TGI [3]: > 100 µM | TGI [4]: 27.8 µM | TGI [6]: > 100 µM | TGI [7]: > 100 µM | TGI [8]: > 100 µM | TGI [9]: 45.2 µM | TGI [10]: > 100 µM | TGI [11]: 99.5 µM | TGI [12]: > 100 µM | TGI [13]: > 100 µM | TGI [14]: > 100 µM | TGI [15]: > 100 µM | TGI [55]: > 100 µM | TGI [17]: > 100 µM | TGI [18]: 84.5 µM | TGI [19]: > 100 µM | TGI [56]: > 100 µM | TGI [22]: > 100 µM | TGI [49]: > 100 µM | TGI [50]: > 100 µM | TGI [24]: > 100 µM | TGI [25]: > 100 µM | TGI [27]: > 100 µM | TGI [28]: > 100 µM | TGI [29]: > 100 µM | TGI [30]: 81 µM | TGI [31]: > 100 µM | TGI [32]: > 100 µM | TGI [33]: > 100 µM | TGI [34]: > 100 µM | TGI [51]: > 100 µM | TGI [36]: > 100 µM | TGI [57]: > 100 µM | TGI [37]: > 100 µM | TGI [38]: > 100 µM | TGI [52]: > 100 µM | TGI [39]: > 100 µM | TGI [40]: > 100 µM | TGI [53]: > 100 µM | TGI [41]: > 100 µM | TGI [42]: > 100 µM | TGI [43]: > 100 µM | TGI [44]: > 100 µM | TGI [45]: > 100 µM | TGI [46]: > 100 µM | TGI [58]: 62.1 µM | TGI [54]: > 100 µM | TGI [47]: > 100 µM | TGI [48]: > 100 µM

c1ccc2c(c1)c1ccccc1c1n[se]nc21
TGI [1]: > 100 µM | TGI [2]: 92.2 µM | TGI [3]: > 100 µM | TGI [4]: > 100 µM | TGI [6]: > 100 µM | TGI [7]: > 100 µM | TGI [9]: 77.2 µM | TGI [10]: > 100 µM | TGI [11]: > 100 µM | TGI [12]: > 100 µM | TGI [13]: 67.1 µM | TGI [14]: > 100 µM | TGI [15]: > 100 µM | TGI [55]: > 100 µM | TGI [17]: > 100 µM | TGI [18]: 59 µM | TGI [19]: > 100 µM | TGI [56]: > 100 µM | TGI [22]: > 100 µM | TGI [49]: > 100 µM | TGI [50]: > 100 µM | TGI [24]: > 100 µM | TGI [25]: > 100 µM | TGI [27]: > 100 µM | TGI [28]: > 100 µM | TGI [29]: > 100 µM | TGI [30]: > 100 µM | TGI [31]: > 100 µM | TGI [32]: > 100 µM | TGI [33]: > 100 µM | TGI [34]: > 100 µM | TGI [51]: > 100 µM | TGI [36]: > 100 µM | TGI [57]: > 100 µM | TGI [37]: > 100 µM | TGI [38]: 64.3 µM | TGI [52]: > 100 µM | TGI [39]: 48.6 µM | TGI [40]: > 100 µM | TGI [53]: > 100 µM | TGI [41]: > 100 µM | TGI [42]: > 100 µM | TGI [43]: > 100 µM | TGI [44]: > 100 µM | TGI [45]: > 100 µM | TGI [46]: > 100 µM | TGI [58]: > 100 µM | TGI [54]: > 100 µM | TGI [47]: > 100 µM | TGI [48]: > 100 µM
